Data as given in patent EP4678638A1, “NEW E3 UBIQUITIN LIGASE LIGAND, PROTEIN DEGRADATION AGENT AND USE THEREOF” (priority 2023, dated 2024).
Where two headings read alike, the source gives them in different places.

Columns and labels:
DU-145 = assay: CCK-8 proliferation, DU-145; format: cell-based; conditions: Homo sapiens, 96 hours, read-out: Inhibitory activity (IC50) on tumor cell proliferation, DU-145
Description: (§1) The tumor cells used herein were cultured in a cell culture medium listed in table A1 at 37°C in an incubator with 5% CO2. Prior to experimentation, all cell lines used were correctly identified by STR profiling, and tested negative for mycoplasma contamination using a mycoplasma detection kit through routine screenings. Table A1. Tumor cells and cell culture medium used in the present disclosure
(§2) IC50 values of the compounds of the present disclosure (including the compounds in Table 1, and compounds of examples) were measured using the Meilun Cell Counting Kit-8 kit from Dalian Meilun Biotech Co., Ltd. Assay details are as follows: tumor cells were seeded in a 96-well plate at a density listed in Table A2. After 24h, 100 µL of the inoculated cells were treated with 0.5µL of the compounds of the present disclosure (including the compounds in Tables 1 and 2, and compounds of examples) at 10 different successively decreasing concentrations (starting at the highest concentration of 10µM; 5-fold serial dilutions). After the cells were treated with the compounds of the present disclosure for a period of time, the cell viability detection reagent was added to the culture medium for cell viability assessment according to the instructions provided with the CCK-8 kit. […] The growth inhibition of the compounds of the present disclosure on cells was plotted by Prism Graphpad software, and the IC50 values of the compounds of the present disclosure were calculated therefrom. […] Seeding protocol and treatment time for tumor cells

LNcap = assay: CCK-8 proliferation, LNcap; format: cell-based; conditions: Homo sapiens
Description: as §1, §2

SW620 = assay: CCK-8 proliferation, SW620; format: cell-based; conditions: Homo sapiens, SW-620; CCK-8; 96 hours; read-out: Inhibitory activity (IC50) on tumor cell proliferation, SW620
Outline: (§3)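 CCK-8 viability readout; IC50 from growth-inhibition curve fitting. Cells plated, dosed 24h later with a 10-point series, top 10µM, 5-fold steps. Culture at 37°C, 5% CO2.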

SR = assay: CCK-8 proliferation, SR; format: cell-based, Human; conditions: Homo sapiens; Table B10, compounds designed based on the IRAK4 inhibitors; SR cells; read-out: Inhibitory activity (IC50, nM) on tumor cell proliferation, SR
Outline: as §3

Jurkat = assay: CCK-8 proliferation, Jurkat; format: cell-based, Human; conditions: Homo sapiens; Table B10, compounds designed based on the IRAK4 inhibitors; Jurkat cells; read-out: Inhibitory activity (IC50, nM) on tumor cell proliferation, Jurkat
Outline: as §3

CCRF-CEM = assay: CCK-8 proliferation, CCRF-CEM; format: cell-based, Human; conditions: Homo sapiens; Table B10, compounds designed based on the IRAK4 inhibitors; CCRF-CEM cells; read-out: Inhibitory activity (IC50, nM) on tumor cell proliferation, CCRF-CEM
Outline: as §3

MV-4-11 = assay: CCK-8 proliferation, MV-4-11; format: cell-based, Human; conditions: Homo sapiens, MV4-11; Table B10, compounds designed based on the IRAK4 inhibitors; MV-4-11 cells; read-out: Inhibitory activity (IC50, nM) on tumor cell proliferation, MV-4-11
Outline: as §3

IRAK4 = target: T1, IRAK4 (Homo sapiens, UniProt Q9NWZ3); assay: Western blot degradation of IRAK4 (hPBMC); format: cell-based; conditions: Table D1
T1 construct: evaluate the effects of the compounds of the present disclosure on the expression of target proteins in cells; endogenous in cells; host or cells: hPBMC
T1 sequence (Q9NWZ3 1-460): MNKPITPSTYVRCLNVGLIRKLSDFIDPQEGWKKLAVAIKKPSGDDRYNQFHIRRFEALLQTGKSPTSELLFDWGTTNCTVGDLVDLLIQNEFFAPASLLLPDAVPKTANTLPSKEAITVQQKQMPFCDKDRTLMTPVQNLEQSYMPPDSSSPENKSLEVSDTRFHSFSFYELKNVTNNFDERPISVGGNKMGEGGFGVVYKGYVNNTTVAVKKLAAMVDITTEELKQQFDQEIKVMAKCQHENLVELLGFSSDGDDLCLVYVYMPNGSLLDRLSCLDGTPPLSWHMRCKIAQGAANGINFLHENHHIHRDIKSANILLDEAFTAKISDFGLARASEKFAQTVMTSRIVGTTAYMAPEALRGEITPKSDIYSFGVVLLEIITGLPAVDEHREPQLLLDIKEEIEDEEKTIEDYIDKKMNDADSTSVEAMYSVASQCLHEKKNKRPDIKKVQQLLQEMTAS
Outline: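 Degradation is assessed by immunoblotting lysates of treated cells. Target bands are quantified by grayscale and normalised to an internal control, so degradation rate equals 100% minus % remaining.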

MM.1S = assay: CCK-8 proliferation, MM.1S; format: cell-based; conditions: Homo sapiens, MM1.S; Table B10, compounds designed based on the IRAK4 inhibitors; MM.1S cells; read-out: Inhibitory activity (IC50, nM) on tumor cell proliferation, MM.1S
Outline: as §3

[1] = Table B10, compounds designed based on the IRAK4 inhibitors, Lncap cells, read-out: Inhibitory activity (IC50, nM) on tumor cell proliferation, Lncap

IC50 (DU-145) [µM] | IC50 (MV-4-11) [nM] | Compound | IC50 (Jurkat) [nM] | IC50 (LNcap; [1]) [nM] | IC50 (CCRF-CEM) [nM] | further results
 | 500 to 1000 | CC(C)Nc1cc(-n2ccc3cc(C#N)cnc32)ncc1C(=O)NC1CCN(Cc2ccc(C3CCC(=O)NC3=O)c(F)c2)CC1 (stereo not shown) [GT-04043, 6-(5-cyano-1H-pyrrolo[2,3-b]pyridin-1-yl)-N-(1-(4-(2,6-dioxopiperidin-3-yl)-3-fluorobenzyl)piperidin-4-yl)-4-(isopropylamino)nicotinamide] | 100 to 500 | 500 to 1000 | 500 to 1000 | IC50 (SR): 500 to 1000 nM
0.1 to 0.5 |  | O=C1CCN(c2ccc(COc3ccc(Cl)cc3-c3nc4cc(C(F)(F)F)cc(Cl)c4[nH]3)cc2)C(=O)N1 [GT-06479, 1-(4-((4-chloro-2-(7-chloro-5-(trifluoromethyl)-1H-benzo[d]imidazol-2-yl)phenoxy)methyl)phenyl)dihydropyrimidine-2,4(1H,3H)-dione] |  |  |  | 
 | 500 to 1000 | CC(C)Nc1cc(-n2ccc3cc(C#N)cnc32)ncc1C(=O)NC1CCN(Cc2ccc(C3CCC(=O)NC3=O)cc2)CC1 (stereo not shown) [GT-04042, 6-(5-cyano-1H-pyrrolo[2,3-b]pyridin-1-yl)-N-(1-(4-(2,6-dioxopiperidin-3-yl)benzyl)piperidin-4-yl)-4-(isopropylamino)nicotinamide] | 500 to 1000 | 500 to 1000 | 500 to 1000 | IC50 (SR): 500 to 1000 nM

The remaining lines, values behind:

Compound | IC50 (DU-145) [µM] | IC50 (MV-4-11) [nM] | IC50 (Jurkat) [nM] | IC50 (LNcap; [1]) [nM] | IC50 (CCRF-CEM) [nM] | further results
O=C1CCN(c2cccc(COc3ccc(Cl)cc3-c3nc4cc(C(F)(F)F)cc(Cl)c4[nH]3)c2)C(=O)N1 [GT-06480, 1-(3-((4-chloro-2-(7-chloro-5-(trifluoromethyl)-1H-benzo[d]imidazol-2-yl)phenoxy)methyl)phenyl)dihydropyrimidine-2,4(1H,3H)-dione] | 0.1 to 0.5 |  |  |  |  | 
CN(Cc1ccc(C2CCC(=O)NC2=O)c(F)c1)C1CCN(c2ncc(C(=O)Nc3ccc(OC(F)(F)Cl)cc3)cc2-c2cc[nH]n2)CC1 (stereo not shown) [GT-04027, N-(4-(chlorodifluoromethoxy)phenyl)-6-(4-((4-(2,6-dioxopiperidin-3-yl)-3-fluorobenzyl)(methyl)amino)piperidin-1-yl)-5-(1H-pyrazol-3-yl)nicotinamide] |  |  |  |  |  | IC50 (LNcap; LNCaP, CCK-8, 96 hours, read-out: Inhibitory activity (IC50) on tumor cell proliferation, Lncap): 100 to 500 nM; IC50 (SW620): 0.1 to 0.5 µM
O=C1CCC(c2ccc(CN3CCC(n4cc(NC(=O)c5coc(-c6ccnc(NCC7CC7)c6)n5)c(C(F)F)n4)CC3)cc2)C(=O)N1 (stereo not shown) [GT-04175, 2-(2-((cyclopropylmethyl)amino)pyridin-4-yl)-N-(3-(difluoromethyl)-1-(1-(4-(2,6-dioxopiperidin-3-yl)benzyl)piperidin-4-yl)-1H-pyrazol-4-yl)oxazole-4-carboxamide] |  | 500 to 1000 | 100 to 500 | 100 to 500 | 500 to 1000 | Degradation of substrate protein IRAK4 (substrate protein remaining %) (IRAK4): A (A is defined as 0% ≤ substrate protein remaining % ≤ 80%)
O=C1CCN(c2ccc(COc3ccc(Cl)cc3-c3nc4cc(C(F)(F)F)cc(Cl)c4[nH]3)cn2)C(=O)N1 [GT-06481, 1-(5-((4-chloro-2-(7-chloro-5-(trifluoromethyl)-1H-benzo[d]imidazol-2-yl)phenoxy)methyl)pyridin-2-yl)dihydropyrimidine-2,4(1H,3H)-dione] | 0.05 to 0.1 |  |  |  |  | 
O=C1CCC(c2ccc(CN3CCN(c4ccc(-n5cc(NC(=O)c6coc(-c7ccnc(NCC(F)(F)F)c7)n6)c(C(F)F)n5)cc4)CC3)cc2F)C(=O)N1 (stereo not shown) [GT-04274, N-(3-(difluoromethyl)-1-(4-(4-(4-(2,6-dioxopiperidin-3-yl)-3-fluorobenzyl)piperazin-1-yl)phenyl)-1H-pyrazol-4-yl)-2-(2-((2,2,2-trifluoroethyl)amino)pyridin-4-yl)oxazole-4-carboxamide] |  |  | 500 to 1000 | 100 to 500 | 500 to 1000 | Degradation of substrate protein IRAK4 (substrate protein remaining %) (IRAK4): A (A is defined as 0% ≤ substrate protein remaining % ≤ 80%); IC50 (MM.1S): 100 to 500 nM
